Data on one compound can be found in patent publication US11596626B2, “Compound for use against pathogenic Neisseria and Haemophilus species and Moraxella catarrhalis” (priority 2017, dated 2023).

Entries after “also recorded” stand apart in the source; their conditions may differ. Where only a bound is given, the exact number is not on record here.

A short description of data set [1]: Tissue integrity and tolerability after topical vaginal application in CEAtg mice. Type of data set: in vivo. Here is the method:
6 to 8 week old, female CEA-transgenic mice were infected with N. gonorrhoeae. 2 h after infection, the animals were treated with 20 μl buffer containing solvent (DMSO) or 50 μM NQNO (Compound represented by the Formula (5)). 20 h later, the genital tract was excised and cryosections were stained for cell nuclei (Hoechst; blue), human CEA (red) and N. gonorrhoeae (gonococci, green) (FIG. 8).
Additional cryosections from the same samples were stained for cell nuclei (Hoechst; blue), human collagen (red) and N. gonorrhoeae (gonococci, green) (FIG. 9).
6 to 8 week old, female CEA-transgenic mice were treated with 20 μl buffer containing solvent (DMSO) or 50 μM NQNO (Compound represented by the Formula (5)). 20 h later, the genital tract was excised, fixed, paraffin embedded and tissue sections were stained with HE (Haematoxilin/Eosin) solution.
In particular, in the above experiment the genital tract of infected and NQNO/DMSO or DMSO treated animals was excised and placed in 4% neutral buffer containing formalin overnight followed by 0.4% PFA (paraformaldehyde) treatment. The tissue was then dehydrated and embedded in paraffin. 10 μm serial sections were cut, deparaffinized and rehydrated in a graded series (100% to 75%) of ethanol. Sections were serially stained with Hematoxilin solution according to Mayer (Sigma) and 0.5% Eosin G solution (Roth).

Data set [2] has as its system immortalized human vaginal epithelial cells (MS74). Nature of the data set: MTT assay of metabolic activity (cytotoxicity). Type of data set: cell-based. The settings on record: FIG. 13. The text has this: (§1) HeLa S3 cells were cultivated in Dulbecco's modified Eagle's medium (DMEM) medium supplemented with 10% fetal calf serum and passaged every 2-3 days. Primary human vaginal epithelial cells (hVEC/MS74) were obtained from A. J. Schaeffer (Feinberg School of Medicine, Northwestern University, Chicago, Ill.) and are derived from vaginal tissue of a post-menopausal person. The cell line was created through immortalization of these cells with human papilloma virus 16, E6 and E7 genes according to literature (N. Rajan et. al., Characterization of an immortalized human vaginal epithelial cell line. J Urol 163, 616-622 (2000)). MS74 were cultured on gelatine-coated cell culture dished using Dulbecco's modified Eagle's medium (DMEM) medium (biochrom) supplemented with 10% fetal calf serum, 1% non-essential amino acids and 1% pyruvate at 37° C. in 5% CO2 and subcultured when half confluency was reached.
All plates were coated overnight at 4° C. with 0.1% gelatine in PBS before use. 2×10^4 HeLa S3 or MS74 cells were incubated with the mentioned concentrations of NQNO in 100 μl of their respective medium and incubated for 2 days at 37° C. and 5% CO2. 10 μl of MTT solution (12 mM in PBS, sterile filtered with […]) were added. The cells were subsequently incubated for 2 h at 37° C. […] 0D550 was measured using a Thermo Fisher Varioskan Flash spectrophotometer.

The next data set deals with Commensal Neisseria. Nature of the data set: Growth inhibition by area under the growth curve relative to solvent. The format is cell-based. The settings on record: 5-50 μM, FIG. 5. On the procedure: Before every experiment, bacteria were pre-cultured in 5 ml liquid medium for at least 2 hours then harvested and resuspended in PBS (phosphate buffered saline). Optical density (OD) was determined and a volume equal to an OD of 0.2 was inoculated into 5 ml of the respective medium. NQNO was added at the indicated amounts (5-50 μM). DMSO level was adjusted to 1% of final concentration. Samples were incubated for either 10.5 hours, until they reached stationary phase (three measured values in stationary phase) or until they reached an OD of 2.5. Optical density was determined every 0.5 h.
Growth experiments with the compounds represented by the Formulas (4) to (7) were conducted against various bacteria, including clinical isolates of N. gonorrhoeae including high priority 3rd generation cephalosporin/fluoroquinolone-resistant strains, strains isolated from disseminated disease settings, and commensal Neisseria and other commensal bacteria and evaluated (FIGS. 5 and 11). Growth of the indicated bacteria was measured as described in Example 1. Growth inhibition was quantified by measuring the “area under the curve” in the presence of the indicated concentrations of the respective compound (5-50 μM) relative to growth in the presence of the solvent only. Black areas indicate growth inhibition with <30% growth compared to control.

Data set [3] has as its system multidrug-resistant N. gonorrhoeae isolate from Slovenia. The data set is described as follows: Growth curves in liquid culture (optical density) vs DMSO control. The format is cell-based, Neisseria gonorrhoeae. On the procedure: Growth experiments with NQNO were conducted against Neisseria gonorrhoeae strain MS11 (Edwards, M., et al., Antigenic analysis of gonococcal pili using monoclonal antibodies, J Exp Med, 1984. 160(6): p. 1782-91) and a multidrug-resistant N. gonorrhoeae isolate from Slovenia (Unemo M, Golparian O, Potočnik M, Jeverica S. Treatment failure of pharyngeal gonorrhoea with internationally recommended first-line ceftriaxone verified in Slovenia, September 2011. Euro Surveill. 2012; 17(25):pii=20200), Neisseria macacae, and Lactobacillus brevis. The bacteria were inoculated in GC (Difco™ GC medium Ref. 228950, BD Becton Dickinson) and PPM broth (15 g/L Proteon Pepton, 1 g/L soluble starch, 5 g/L NaCl, 4 g/L KH2PO4, 1 g/L K2HPO4, pH 7.5) (Neisseriae) or TSB (BBL™ Trypticase Soy Broth Ref 211768, BD Becton Dickinson) (Lactobacillus) supplemented with solvent (DMSO) or the indicated concentrations of NQNO (5-50 04) and their growth at 37° C. was monitored over the course of 10 h by optical density readings in 30 minute intervals. […]
Before every experiment, bacteria were pre-cultured in 5 ml liquid medium for at least 2 hours then harvested and resuspended in PBS (phosphate buffered saline). Optical density (OD) was determined and a volume equal to an OD of 0.2 was inoculated into 5 ml of the respective medium. […] Optical density was determined every 0.5 h.

The next data set relates to HeLa cells. Nature of the data set: MTT assay of metabolic activity (cytotoxicity). Type of data set: cell-based, human. On the procedure: HeLa cells in 24-well plate were incubated for 24 h with concentrations of 0.5 to 10 μM NQNO or solvent (DMSO) as a control. Metabolic activity as a measure of mitochondrial respiration was recorded using 3-(4,5-Dimethylthiazol-2-yl)-2,5-diphenyltetrazoliumbromid (MTT) as reporting agent, Activity was measured with a plate reader at 550 nm, (FIG. 6). Shown are mean values+/S.D. of four replicate wells.
as §1, with “MS74 were cultured on gelatine-coated cell culture dished using Dulbecco's modified Eagle's medium (DMEM) medium (biochrom) supplemented with 10% fetal calf serum, 1% non-essential amino acids and 1% pyruvate at 37° C. in 5% CO2 and subcultured when half confluency was reached.” left out
All plates were coated overnight at 4° C. with 0.1% gelatine in PBS before use. […] 0D550 was measured using a Thermo Fisher Varioskan Flash spectrophotometer.

In the case of `CCCCCCCCCc1cc(=O)c2ccccc2n1O` [NQNO, 1-Hydroxy-2-nonylquinolin-4(1H)-one], in data set [1] (CEAtg mice, 20 μl of 50 μM, 20 h, FIG. 10), the “Histology of vaginal tract epithelium (HE staining)” value was “intact striated epithelium”. In addition, in data set [1] (infected CEAtg mice, 20 μl of 50 μM topical, 20 h, FIGS. 8 and 9), the “Integrity of mucosal surface and subepithelial tissue (CEA and collagen staining)” value is “continuous and unaltered mucosal surface; also recorded: does not damage the mucosal surface”. For the same compound, in data set [1] (single topical application), the “Signs of discomfort in treated mice” value is reported as “did not show any signs of discomfort”. The “Metabolic activity (MTT)” value in data set [2] (50 μM, two days) was “only slightly reduced metabolic activity”. Moreover, the “Cytotoxicity (metabolic activity, MTT)” value in data set [2] (up to 25 μM, 2 days) is listed as “not harmed”; in the data set with HeLa cells (10 μM, up to 24 h, preliminary experiment, FIG. 6), “does not lead to cytotoxicity”; in the data set on HeLa cells (up to 10 μM, 48 h, FIG. 12), “did not exhibit signs of cytotoxicity”. Also, the “Growth inhibition (area under the curve relative to solvent)” value in the data set with Commensal Neisseria is recorded as “not compromised”. For the same compound, the “Concentration leading to complete growth inhibition” value in data set [3] (37° C., 10 h, FIG. 2) is not above 5 µM; in data set [3] (mass concentration given for 5 μM), less than 1.4 µg/mL.
